From patent US20250186430A1, “THERAPY OF INTEROCEPTION DISORDERS WITH CGRP RECEPTOR ANTAGONISTS” (priority 2022, published 2025)

Assays:
[1] = system: rats exposed to the chemotherapeutic drug cisplatin; assay: cisplatin model of malaise due to antineoplastic chemotherapy; type: in vivo; conditions: cisplatin 6 mg/kg intraperitoneal, gepant 10 mg/kg orally, daily, starting two days before cisplatin
Description: FIG. 1. Effect of rimegepant, ubrogepant, atogepant and zavegepant (10 mg/kg orally, daily, starting two days before cisplatin) on food consumption/anorexia, weight loss and weight body recovery in rats exposed to cisplatin (6 mg/kg, intraperitoneal), as an experimental model of malaise due to antineoplastic chemotherapy. * p<0.05, ** p<0.01, *** p<0.001, vs control, ANOVA and Tukeys post hoc test.

[2] = system: rats injected with cerulein; assay: cerulein model of pancreatitis; type: in vivo; conditions: gepant 10 mg/kg orally, daily, starting two days before cerulein treatment
Description: FIG. 5. Effects of rimegepant, ubrogepant, atogepant and zavegepant (10 mg/kg orally, daily, starting two days before cerulein treatment) on body weight loss and spontaneous motility in rats injected with cerulein as an experimental model of pancreatitis. * p<0.05, ** p<0.01, *** p<0.001 vs Pancreatitis, ANOVA and Tukeys post hoc test.

[3] = system: rats treated with carbon tetrachloride; assay: carbon tetrachloride model of malaise due to hepatopathy; type: in vivo; conditions: gepant 10 mg/kg orally, daily, starting two days before carbon tetrachloride
Description: Further, we have tested the gepants in a model of hepatopathy, a condition that typically prompts asthenia, weight loss and anhedonia.
FIG. 4. Effects of rimegepant, ubrogepant, atogepant and zavegepant (10 mg/kg orally, daily, starting two days before carbon tetrachloride) on body weight loss and sweet water consumption in rats treated with carbon tetrachloride as a model of malaise due to hepatitis/hepatopathy. * p<0.05, ** p<0.01, *** p<0.001 vs Hepatitis, ANOVA and Tukeys post hoc test.

[4] = system: rats injected intraperitoneally with lipopolysaccharides from Salmonella Typhimurium; assay: lipopolysaccharide model of malaise due to sepsis/systemic immune activation; type: in vivo; conditions: gepant 10 mg/kg orally, daily, starting two days before lipopolysaccharides injection
Description: FIG. 9. Effects of rimegepant, ubrogepant, atogepant and zavegepant (10 mg/kg orally, daily, starting two days before lipopolysaccharides injection) on body weight loss and food consumption/anorexia in rats injected intraperitoneally with lipopolysaccharides from Salmonella Typhimurium as a classic model of malaise due to sepsis/systemic immune activation. * p<0.05, ** p<0.01, vs Sepsis, ANOVA and Tukeys post hoc test.

[5] = system: rats injected with Yoshida hepatoma; assay: Yoshida hepatoma model of malaise due to tumor cachexia; type: in vivo; conditions: gepant 10 mg/kg orally, daily, starting two days before tumor injection
Description: As additional models of malaise due to interoceptive information, we have adopted those of tumor cachexia and sepsis.
FIG. 8. Effects of rimegepant, ubrogepant, atogepant and zavegepant (10 mg/kg orally, daily, starting two days before tumor injection) on body weight loss, muscle mass and food consumption/anorexia in rats injected with Yoshida hepatoma, as classic model of malaise due to tumor cachexia. * p<0.05, ** p<0.01, *** p<0.001. **** p<0.0001 vs Hepatoma, ANOVA and Tukeys post hoc test.

[6] = system: rats treated with a diet containing 0.75% adenine; assay: 0.75% adenine diet model of renal insufficiency; type: in vivo; conditions: gepant 10 mg/kg orally, daily, starting two days before nephrotoxic diet
Description: Further, we have tested the gepants in rats treated with a diet containing 0.75% adenine as an experimental model of renal insufficiency.
FIG. 6. Effects of rimegepant, ubrogepant, atogepant and zavegepant (10 mg/kg orally, daily, starting two days before exposure to the nephrotoxic diet) on body weight loss and food consumption/anorexia in rats exposed to a diet containing 0.75% adenine as an experimental model of renal insufficiency. *p<0.05, ** p<0.01, *** p<0.001 vs Kidney Failure, ANOVA and Tukeys post hoc test.

[7] = system: mice with chronic arthritis due to injection of Freund's adjuvant; assay: chronic arthritis (Freund's adjuvant) model of malaise due to chronic pain; type: in vivo; conditions: gepant 10 mg/kg orally, daily, starting two days before arthritis induction
Description: FIG. 2. Effects of rimegepant, ubrogepant, atogepant and zavegepant (10 mg/kg orally, daily, starting two days before arthritis induction) on food consumption/anorexia, weight loss and spontaneous motility in mice with chronic arthritis due to injection of Freund's adjuvant as an experimental model of malaise due to chronic pain. * p<0.05, ** p<0.01, *** p<0.001 vs Arthritis, ANOVA and Tukeys post hoc test.

[8] = system: rats subjected to laparotomy and gut manipulation; assay: laparotomy and gut manipulation model of malaise due to abdominal surgery; type: in vivo; conditions: gepant 10 mg/kg orally, daily, starting two days before surgery
Description: FIG. 3. Effects of rimegepant, ubrogepant, atogepant and zavegepant (10 mg/kg orally, daily, starting two days before surgery) on body weight loss and food consumption/anorexia in rats subjected to laparotomy and gut manipulation as an experimental model of malaise due to abdominal surgery. * p<0.05, ** p<0.01, *** p<0.001 vs Laparotomy, ANOVA and Tukeys post hoc test.

[9] = background art; cited from earlier work
[10] = system: mice sensitized and re-challenged with ovalbumin; assay: ovalbumin model of asthma or chronic obstructive pulmonary disease; type: in vivo; conditions: gepant 10 mg/kg orally, daily, starting two days before antigen rechallenge
Description: FIG. 7. Effects of rimegepant, ubrogepant, atogepant and zavegepant (10 mg/kg orally, daily, starting two days before antigen rechallenge) on spontaneous motility, body weight loss and sweet water ingestion of mice sensitized and re-challenged with ovalbumin as a model of asthma or chronic obstructive pulmonary disease. * p<0.05, ** p<0.01, *** p<0.001 vs […], ANOVA and Tukeys post hoc test.

[11] = background art; cited from earlier work; remark: listed apart in the source

C[C@@H]1[C@H](c2c(F)ccc(F)c2F)C[C@H](NC(=O)c2cnc3c(c2)C[C@@]2(C3)C(=O)Nc3ncccc32)C(=O)N1CC(F)(F)F [atogepant]
body weight loss [1]: reduces
food aversion/anorexia [1]: reduces
weight body recovery [1]: accelerates
reduction in spontaneous motility [2]: prevents
weight loss [2]: prevents
sweet water consumption (index of motivational behavior and reduced anhedonia) [3]: triggers an increase
weight loss [3]: reduces
decrease of food consumption/anorexia [4]: reduces
weight loss [4]: reduces
loss of muscle mass [5]: counteracting
reduction of food consumption/anorexia [5]: counteracting
weight loss [5]: reducing
decrease of food consumption/anorexia [6]: reduces
weight loss [6]: reduces
food aversion/anorexia [7]: reduces
spontaneous motility [7]: increases
weight loss [7]: reduces
food aversion/anorexia [8]: in part
weight loss [8]: completely prevents
hepatotoxicity [9]: non-hepatotoxic
decrease of sweet water consumption [10]: reduces
spontaneous motility (parameter of malaise) [10]: reduces
weight loss [10]: reduces

NCCCC[C@H](NC(=O)[C@@H](Cc1cc(Br)c(O)c(Br)c1)NC(=O)N1CCC(N2Cc3ccccc3NC2=O)CC1)C(=O)N1CCN(c2ccncc2)CC1 [olcegepant]
efficacy as anti-migraine drugs [11]: proved efficacious
hepatotoxicity [9]: occurrence of hepatotoxicity

N[C@@H]1c2cccnc2[C@H](OC(=O)N2CCC(n3c(=O)[nH]c4ncccc43)CC2)CC[C@H]1c1cccc(F)c1F [rimegepant]
body weight loss [1]: reduces
food aversion/anorexia [1]: reduces
weight body recovery [1]: accelerates
reduction in spontaneous motility [2]: prevents
weight loss [2]: prevents
sweet water consumption (index of motivational behavior and reduced anhedonia) [3]: triggers an increase
weight loss [3]: reduces
decrease of food consumption/anorexia [4]: reduces
weight loss [4]: reduces
loss of muscle mass [5]: counteracting
reduction of food consumption/anorexia [5]: counteracting
weight loss [5]: reducing
decrease of food consumption/anorexia [6]: reduces
weight loss [6]: reduces
food aversion/anorexia [7]: reduces
spontaneous motility [7]: increases
weight loss [7]: reduces
food aversion/anorexia [8]: in part
weight loss [8]: completely prevents
hepatotoxicity [9]: non-hepatotoxic
decrease of sweet water consumption [10]: reduces
spontaneous motility (parameter of malaise) [10]: reduces
weight loss [10]: reduces

O=C(N[C@@H]1CC[C@@H](c2cccc(F)c2F)CN(CC(F)(F)F)C1=O)N1CCC(n2c(=O)[nH]c3ncccc32)CC1 [telcagepant]
efficacy as anti-migraine drugs [11]: proved efficacious
hepatotoxicity [9]: occurrence of hepatotoxicity

C[C@@H]1[C@H](c2ccccc2)C[C@H](NC(=O)c2cnc3c(c2)C[C@@]2(C3)C(=O)Nc3ncccc32)C(=O)N1CC(F)(F)F [ubrogepant]
body weight loss [1]: reduces
food aversion/anorexia [1]: reduces
weight body recovery [1]: accelerates
reduction in spontaneous motility [2]: prevents
weight loss [2]: prevents
sweet water consumption (index of motivational behavior and reduced anhedonia) [3]: triggers an increase
weight loss [3]: reduces
decrease of food consumption/anorexia [4]: reduces
weight loss [4]: reduces
loss of muscle mass [5]: counteracting
reduction of food consumption/anorexia [5]: counteracting
weight loss [5]: reducing
decrease of food consumption/anorexia [6]: reduces
weight loss [6]: reduces
food aversion/anorexia [7]: reduces
spontaneous motility [7]: increases
weight loss [7]: reduces
food aversion/anorexia [8]: in part
weight loss [8]: completely prevents
hepatotoxicity [9]: non-hepatotoxic
decrease of sweet water consumption [10]: reduces
spontaneous motility (parameter of malaise) [10]: reduces
weight loss [10]: reduces

Cc1cc(C[C@@H](NC(=O)N2CCC(c3cc4ccccc4[nH]c3=O)CC2)C(=O)N2CCN(C3CCN(C)CC3)CC2)cc2cn[nH]c12 [zavegepant]
body weight loss [1]: reduces
food aversion/anorexia [1]: reduces
weight body recovery [1]: accelerates
reduction in spontaneous motility [2]: prevents
weight loss [2]: prevents
sweet water consumption (index of motivational behavior and reduced anhedonia) [3]: triggers an increase
weight loss [3]: reduces
decrease of food consumption/anorexia [4]: reduces
weight loss [4]: reduces
loss of muscle mass [5]: counteracting
reduction of food consumption/anorexia [5]: counteracting
weight loss [5]: reducing
decrease of food consumption/anorexia [6]: reduces
weight loss [6]: reduces
food aversion/anorexia [7]: reduces
spontaneous motility [7]: increases
weight loss [7]: reduces
food aversion/anorexia [8]: in part
weight loss [8]: completely prevents
hepatotoxicity [9]: non-hepatotoxic
decrease of sweet water consumption [10]: reduces
spontaneous motility (parameter of malaise) [10]: reduces
weight loss [10]: reduces
